The conditions of series [1]: in vivo; cited from earlier work.
For series [2] the following is noted: in vivo; cited from earlier work. This is another data set of the same source.
The conditions of series [3]: man; cited from earlier work.
A short description of series [4]: pharmacokinetic studies: absorption and bioavailability. Particulars: in vivo. Details: species or system man. An excerpt:
Absorbed isoquercetin interacts with ascorbate keeping it in the reduced state and, at the same time, is being protected by ascorbate by being kept in the oxidized state (Yamasaki, H. et al. (1997), Flavanoid-peroxidase reaction as a detoxification mechanism of plant cells against H2O2).

Series [5] in a line: passage of the blood-brain barrier / entry into the brain. Particulars: isoquercetin given one hour before ascorbate. Type of series: in vivo. An excerpt: The second form of ascorbic acid, semidehydroascorbic acid (ascorbate free radical) participates in univalent redox systems that is in the antioxidant defense activity. See Bors, W. et al. (1995), Interaction of Flavonoids with Ascorbate and Determination of their Univalent Redox Potentials: a Pulse Radiolysis Study, Free Radical Biology and Medicine, vol. 19, No. 1, 45-52. This means semidehydroascorbic acid participates most likely in free radical scavenging activities. According to the article Gordon, M. H. (1996), Dietary Antioxidants in Disease Prevention, Natural Product Reports, pp. 265-273, “ascorbate appears to be the most important non-protein antioxidant in plasma” p. 270. […] See Agus, D. B. et al. (1997), Vitamin C crosses the blood-brain barrier in the oxidized form through the glucose transporters, J. Clin. Invest., 100 (11) 2842-2848. After entering the brain dehydroascorbic acid is reduced and retained as ascorbic acid.

For the compound `O=C1O[C@H]([C@@H](O)CO)C(O)=C1O` [Ascorbic acid, ascorbic acid], the “concentration in brain relative to blood serum” value in series [1] is given as 10 times. Besides, in series [2], the “crossing of the blood-brain barrier” value was “not able to cross blood-brain barrier”.

As to `O=C1O[C@H]([C@@H](O)CO)C(=O)C1=O` [dehydroascorbic acid], the “crossing of the blood-brain barrier” value in series [2] is “readily enters the brain”.

With `O=c1c(O[C@@H]2O[C@H](CO)[C@@H](O)[C@H](O)[C@H]2O)c(-c2ccc(O)c(O)c2)oc2cc(O)cc(O)c12` [isoquercetin, quercetin-3-O-glucoside], the “absorption compared with rutin and quercetin” value in series [3] was “absorbed better than rutin and quercetin”. Also, the “absorption rate and bioavailability” value in series [4] is “excellent absorption rate and bioavailability”. Besides, the “entry into the brain and reduction of dehydroascorbate” value in series [5] is “enters the brain and reduces dehydroascorbate”.

Values taken from patent US6491948B1, “Composition comprising isoquercetin and ascorbic acid in a sustained release form” (Merck Patent GmbH, priority 1999, dated 2002).
